Data from patent publication US20230301957A1, “PO[…] ACID ESTER COMPOSITION AND APPLICATION THEREOF” (SINGAO (XUZHOU) BIOTECH CO., LTD, priority 2020, published 2023).

Test system: influenza virus H1N1
Experiment: Hemagglutination test of supernatants of influenza-infected A549 cells
Type: cell-based, influenza virus H1N1 (A549 cells)
Details: average of the two inoculation treatments (Protocol 1 and 2)
Procedure: A total of four samples were prepared in this experiment: • (1) a lauric acid sample: 3.5 mg of lauric acid was dissolved in 0.5 mL of dimethyl sulfoxide, and then diluted with 9.5 mL of cell culture medium to a final concentration of 0.35 mg/mL and a pH value of the sample was 10.1; • (2) an α-monolaurin sample: 4.8 mg of α-monolaurin was dissolved in 0.5 mL of dimethyl sulfoxide, and then diluted with 9.5 mL of cell culture medium to a final concentration of 0.48 mg/mL and a pH value of the sample was 10.3; • (3) a triglycerol monolaurin sample: 7.5 mg of triglycerol monolaurin was diluted with 10 mL of cell culture medium to a final concentration of 0.75 mg/mL and a pH value of the sample was 7.6; and • (4) a triglycerol monolaurin acidic emulsion sample: 50 mg of triglycerol monolaurin acidic emulsion sample was diluted with 10 mL of cell culture medium to a final concentration of 5 mg/mL and a pH value of the sample was 7.5.
According to equivalent lauric acid concentration conversion, lauric acid concentrations in the samples (2) to (4) were all 0.35 mg/mL, which was equal to that in the sample (1).
The A549 cells were cultured in a 24-well plate, after growing to a monolayer, the cells were treated according to the following two protocols: • I. The cell culture medium was removed, the virus was added, the cells were cultured in an incubator with 5% CO2 at 37° C. for 1 h, the virus solution was removed, each prepared sample was added, 12 parallel test wells were set for each group, and the cells were cultured in the incubator with 5% CO2 at 37° C. for 1 h. After the culture, liquids in the cell culture wells were removed, the cells were washed with PBS, added with a cell maintenance medium, and cultured in the incubator with 5% CO2 at 37° C. for 24 h. Meanwhile, a virus positive control group (a cell culture medium mixed with influenza virus 24HAU was added) was set. • II. The cell culture medium was removed, each prepared sample and the virus were added, 12 parallel test wells were set for each group, and the cells were cultured in an incubator with 5% CO2 at 37° C. for 1 h. After the culture, liquids in the cell culture wells were removed, the cells were washed with PBS, added with a cell maintenance medium, and cultured in the incubator with 5% CO2 at 37° C. for 24 h. Meanwhile, a virus positive control group (a cell culture medium mixed with influenza virus 24HAU was added) was set.
Cell culture supernatants respectively obtained by the above 2 treatment methods were used for hemagglutination test, each culture plate was frozen and thawed repeatedly 3 times, a cell solution was collected for extraction of RNA, which was used for qRT-PCR detection of nucleoprotein (NP).

Row | Compound | hemagglutination titer, average values
1 | CCCCCCCCCCCC(=O)O [(1), lauric acid] | 4.75
2 | CCCCCCCCCCCC(=O)OCC(O)CO (stereo not drawn) [(2), α-monolaurin] | 2.25
3 | triglycerol monolaurin [(3)] | 4.25

Same assay, conditions: from average hemagglutination titers; high titer indicates high virus content

Row | Compound | inhibitory effect on the influenza virus (in words)
4 | CCCCCCCCCCCC(=O)O [(1), lauric acid] | weaker compared to the sample (4)
5 | CCCCCCCCCCCC(=O)OCC(O)CO (stereo not drawn) [(2), α-monolaurin] | the strongest
6 | triglycerol monolaurin [(3)] | weaker compared to the sample (4)
